Measured values as given in patent US20230024842A1, “MUPS TABLET COMPRISING RIBOFLAVIN” (DSM IP Assets B.V., priority 2019, published 2023).

Assay: Absorption of the water solution after 15 min (coloration / riboflavin release from coated particles)
Type: physicochemical
Settings: amount containing 10 mg riboflavin dissolved in 1000 ml water for 15 min; measured at 545 nm, spectrophotometer (Genesys 20)
Method: 20 mg of coated powder (containing 10 mg of Riboflavin) was dissolved in 1000 ml water for 15 min. Absorption of the solution was measured at 545 nm using a spectrophotometer (Genesys 20, thermo Scientific). Absorption of the solution was 0.065.
10 mg of riboflavin powder was dissolved in 1000 ml water for 15 min. Absorption of the solution was measured at 545 nm using a spectrophotometer (Genesys 20, thermo Scientific). Absorption of the solution was 0.386.
16.6 mg of coated powder (containing 10 mg of Riboflavin) was dissolved in 1000 ml water for 15 min. Absorption of the solution was measured at 545 nm using a spectrophotometer (Genesys 20, thermo Scientific). Absorption of the solution was 0.087.

Absorption of the solution: 0.386
SMILES: Cc1cc2nc3c(=O)[nH]c(=O)nc-3n(C[C@H](O)[C@H](O)[C@H](O)CO)c2cc1C [Comparison Example 2, riboflavin]
